This is an account of results in PMC9695041, “The Anti-Breast Cancer Activity of Dihydroartemisinin-5-methylisatin Hybrids Tethered via Different Carbon Spacers” (Molecules, 2022).

Bounds are passed on as bounds.

The test system of data set [1] is MDA-MB-231/ADR breast cancer cell line. Description: MTT antiproliferative assay, MDA-MB-231/ADR. Conditions: Homo sapiens, MDA-MB-231/ADR (drug-resistant). The format is cell-based. (In general: Formazan colour is commonly taken as a measure of viable cells.)
Procedure: (§1) The antiproliferative activity and cytotoxicity of DHA-5-methylisatin hybrids 6a–c and 7a–m against MCF-7, MDA-MB-231, MCF-7/ADR, and MDA-MB-231/ADR (Purchased from Procell) breast cancer cell lines as well as MCF-10A were assessed by 3-(4,5-dimethylthiazol-2-yl)-2,5-diphenyltetrazolium bromide (MTT) assay.
(§2) MCF-7, MDA-MB-231, MCF-7/ADR, and MDA-MB-231/ADR breast cancer cell lines (2 × 10^3) were plated in each well of a 96-well plate and were allowed to adhere and spread for 24 h. The dihydroartemisinin-5-methylisatin hybrids 6a–e and 7a–m were added to a final concentration of 100 µM, and the cells were cultured for 24 h at 37 °C. 3-(4,5-dimethyl-2-thiazolyl)-2,5-diphenyltetrazolium bromide (MTT) solution (10 µL) was added to each well, and the cultures were incubated for an additional 4 h. A further 100 µL of MTT solution was added and incubation continued overnight. The absorbance at 540 nm was determined in each well with a 96-well plate reader. The growth of the treated cells was compared with that of untreated cells.
Data set [2] has as its system MCF-7 breast cancer cell line. Description: MTT antiproliferative assay, MCF-7. The format is cell-based. The note with it: for IC50: Homo sapiens, MCF7, MCF-7, MTT assay.
Procedure: as §1, §2
Data set [3] has as its system MCF-7/ADR breast cancer cell line. Description: MTT antiproliferative assay, MCF-7/ADR. In kind it is cell-based. The note with it: Homo sapiens, NCI/ADR-RES, MCF-7/ADR (drug-resistant).
Procedure: as §1, §2
The subject of data set [4] is MDA-MB-231 breast cancer cell line. Description: MTT antiproliferative assay, MDA-MB-231. The note with it: for IC50: Homo sapiens, MDA-MB-231, MTT assay. In kind it is cell-based.
Procedure: as §1, §2
Data set [5] in a line: MTT cytotoxicity assay, MCF-10A. The note with it: human, MCF-10A normal breast cells.
Procedure: as §1, §2

As to `Cc1ccc2c(c1)C(=NNC(N)=S)C(=O)N2CCCCOC1O[C@@H]2O[C@@]3(C)CC[C@H]4[C@H](C)CC[C@@H]([C@H]1C)[C@@]24OO3` (stereo partly drawn) [Hybrid 7g, 2-(5-Methyl-2-oxo-1-(4-(((3R,5aS,6R,8aS,9R,12R,12aR)-3,6,9-trimethyldecahydro-12H-3,12-epoxy[1,2]dioxepino[4,3-i]isochromen-10-yl)oxy)butyl)indolin-3-ylidene)hydrazine-1-carbothioamide], the IC50 was 40.6 µM in data set [1], 28.9 µM in data set [2], 30.3 µM in data set [3] and 35.1 µM in data set [4]. In data set [2], the “SI1: selectivity index IC50(MCF-10A)/IC50(MCF-7)” value was above 3.46. The “SI2: selectivity index IC50(MCF-10A)/IC50(MDA-MB-231)” value in data set [4] is above 2.84. Also, the IC50 at 24 h in data set [5] was above 100 µM.

As to `Cc1ccc2c(c1)C(=NOCc1ccccc1)C(=O)N2CCCCOC1O[C@@H]2O[C@@]3(C)CC[C@H]4[C@H](C)CC[C@@H]([C@H]1C)[C@@]24OO3` (stereo partly drawn) [Hybrid 7m, 3-((Benzyloxy)imino)-5-methyl-1-(4-(((3R,5aS,6R,8aS,9R,12R,12aR)-3,6,9-trimethyldecahydro-12H-3,12-epoxy[1,2]dioxepino[4,3-i]isochromen-10-yl)oxy)butyl)indolin-2-one], the IC50 in data set [1], in data set [2], in data set [3] and in data set [4] was above 100 µM each time. The same molecule came in with an IC50 at 24 h in data set [5] above 100 µM.

Regarding `Cc1ccc2c(c1)C(=NNC(N)=O)C(=O)N2CCOC1O[C@@H]2O[C@@]3(C)CC[C@H]4[C@H](C)CC[C@@H]([C@H]1C)[C@@]24OO3` (stereo partly drawn) [Hybrid 7d, 2-(5-Methyl-2-oxo-1-(2-(((3R,5aS,6R,8aS,9R,12R,12aR)-3,6,9-trimethyldecahydro-12H-3,12-epoxy[1,2]dioxepino[4,3-i]isochromen-10-yl)oxy)ethyl)indolin-3-ylidene)hydrazine-1-carboxamide], the 50% inhibitory concentration (IC50) in data set [1] turned out to be 21.6 µM; in data set [2], 27.2 µM; in data set [3], 33.3 µM; in data set [4], 19.7 µM. Moreover, the “SI1: selectivity index IC50(MCF-10A)/IC50(MCF-7)” value in data set [2] is listed as above 3.67. Moreover, the “SI2: selectivity index IC50(MCF-10A)/IC50(MDA-MB-231)” value in data set [4] is recorded as above 5.07. In data set [5], this molecule showed an IC50 at 24 h above 100 µM.

As for `CCON=C1C(=O)N(CCOC2O[C@@H]3O[C@@]4(C)CC[C@H]5[C@H](C)CC[C@@H]([C@H]2C)[C@@]35OO4)c2ccc(C)cc21` (stereo partly drawn) [Hybrid 7i, 3-(Ethoxyimino)-5-methyl-1-(2-(((3R,5aS,6R,8aS,9R,12R,12aR)-3,6,9-trimethyldecahydro-12H-3,12-epoxy[1,2]dioxepino[4,3-i]isochromen-10-yl)oxy)ethyl)indolin-2-one], the half-maximal inhibitory concentration (IC50) in data set [1] was 72.7 µM; in data set [2], 69.3 µM; in data set [3], 61.8 µM; in data set [4], 70.4 µM. The “SI1: selectivity index IC50(MCF-10A)/IC50(MCF-7)” value in data set [2] was above 1.44. Moreover, the “SI2: selectivity index IC50(MCF-10A)/IC50(MDA-MB-231)” value in data set [4] is on record as above 1.42. Also, in data set [5], the 50% inhibitory concentration (IC50) at 24 h was above 100 µM.

As to `COc1cccc2c1C(=O)c1c(O)c3c(c(O)c1C2=O)C[C@@](O)(C(=O)CO)C[C@@H]3O[C@H]1C[C@H](N)[C@H](O)[C@H](C)O1` [ADR, Adriamycin, reference compound], the figures for the IC50 in data set [1], in data set [2] and in data set [3] were above 100 µM, 18.9 µM and above 100 µM, respectively. Also, the “SI1: selectivity index IC50(MCF-10A)/IC50(MCF-7)” value in data set [2] was found to be 3.64. Moreover, the “SI2: selectivity index IC50(MCF-10A)/IC50(MDA-MB-231)” value in data set [4] was 14.76. Also, inhibition in data set [5] was half-maximal at 68.8 µM (IC50 at 24 h).

As for `C[C@H]1[C@@H](O)O[C@@H]2O[C@@]3(C)CC[C@H]4[C@H](C)CC[C@@H]1[C@@]24OO3` [DHA, Dihydroartemisinin], in data set [2], the “SI1: selectivity index IC50(MCF-10A)/IC50(MCF-7)” value is listed as above 1.36. Further, half-maximal inhibition in data set [3] (IC50) required 79.1 µM. Moreover, in data set [4], the “SI2: selectivity index IC50(MCF-10A)/IC50(MDA-MB-231)” value is above 1.43. This molecule displayed an IC50 at 24 h in data set [5] above 100 µM.

Take `Cc1ccc2c(c1)C(=O)C(=O)N2CCCOC1O[C@@H]2O[C@@]3(C)CC[C@H]4[C@H](C)CC[C@@H]([C@H]1C)[C@@]24OO3` (stereo partly drawn) [Hybrid 6b, 5-Methyl-1-(3-(((3R,5aS,6R,8aS,9R,12R,12aR)-3,6,9-trimethyldecahydro-12H-3,12-epoxy[1,2]dioxepino[4,3-i]isochromen-10-yl)oxy)propyl)indoline-2,3-dione]: the 50% inhibitory concentration (IC50) in data set [1] was above 100 µM; in data set [2] it was above 100 µM; in data set [3], 87.4 µM; in data set [4], above 100 µM. Besides, in data set [5], the IC50 at 24 h was above 100 µM.

For the molecule `Cc1ccc2c(c1)C(=NO)C(=O)N2CCCCOC1O[C@@H]2O[C@@]3(C)CC[C@H]4[C@H](C)CC[C@@H]([C@H]1C)[C@@]24OO3` (stereo partly drawn) [Hybrid 7c, 3-(Hydroxyimino)-5-methyl-1-(4-(((3R,5aS,6R,8aS,9R,12R,12aR)-3,6,9-trimethyldecahydro-12H-3,12-epoxy[1,2]dioxepino[4,3-i]isochromen-10-yl)oxy)butyl)indolin-2-one], the IC50 in data set [1] came out at 28.5 µM; in data set [2] it was 22.1 µM; in data set [3], 23.4 µM; in data set [4] it was 26.7 µM. For the same molecule, in data set [2], the “SI1: selectivity index IC50(MCF-10A)/IC50(MCF-7)” value is above 4.52. Further, the “SI2: selectivity index IC50(MCF-10A)/IC50(MDA-MB-231)” value in data set [4] is reported as above 3.83. The molecule further returned an IC50 at 24 h in data set [5] above 100 µM.

On to `Cc1ccc2c(c1)C(=O)C(=O)N2CCOC1O[C@@H]2O[C@@]3(C)CC[C@H]4[C@H](C)CC[C@@H]([C@H]1C)[C@@]24OO3` (stereo partly drawn) [Hybrid 6a, 5-Methyl-1-(2-(((3R,5aS,6R,8aS,9R,12R,12aR)-3,6,9-trimethyldecahydro-12H-3,12-epoxy[1,2]dioxepino[4,3-i]isochromen-10-yl)oxy)ethyl)indoline-2,3-dione], for which the IC50 came out at 26.9 µM in data set [1], 31.7 µM in data set [2], 25.3 µM in data set [3] and 29.1 µM in data set [4]. For the same molecule, the “SI1: selectivity index IC50(MCF-10A)/IC50(MCF-7)” value in data set [2] is on record as above 3.15. Also, the “SI2: selectivity index IC50(MCF-10A)/IC50(MDA-MB-231)” value in data set [4] was above 3.43. For the same molecule, the IC50 at 24 h in data set [5] was above 100 µM.

Turning to `Cc1ccc2c(c1)C(=NNC(N)=O)C(=O)N2CCCCOC1O[C@@H]2O[C@@]3(C)CC[C@H]4[C@H](C)CC[C@@H]([C@H]1C)[C@@]24OO3` (stereo partly drawn) [Hybrid 7e, 2-(5-Methyl-2-oxo-1-(4-(((3R,5aS,6R,8aS,9R,12R,12aR)-3,6,9-trimethyldecahydro-12H-3,12-epoxy[1,2]dioxepino[4,3-i]isochromen-10-yl)oxy)butyl)indolin-3-ylidene)hydrazine-1-carboxamide], the half-maximal inhibitory concentration (IC50) in data set [1] is 34.5 µM; in data set [2], 39 µM; in data set [3], 42.1 µM; in data set [4] it was 31.2 µM. In data set [2], the “SI1: selectivity index IC50(MCF-10A)/IC50(MCF-7)” value is listed as above 2.56. The “SI2: selectivity index IC50(MCF-10A)/IC50(MDA-MB-231)” value in data set [4] is listed as above 3.20. Besides, the 50% inhibitory concentration (IC50) at 24 h in data set [5] is above 100 µM.

On to `Cc1ccc2c(c1)C(=NO)C(=O)N2CCCOC1O[C@@H]2O[C@@]3(C)CC[C@H]4[C@H](C)CC[C@@H]([C@H]1C)[C@@]24OO3` (stereo partly drawn) [Hybrid 7b, 3-(Hydroxyimino)-5-methyl-1-(3-(((3R,5aS,6R,8aS,9R,12R,12aR)-3,6,9-trimethyldecahydro-12H-3,12-epoxy[1,2]dioxepino[4,3-i]isochromen-10-yl)oxy)propyl)indolin-2-one], for which the IC50 came to 36.4 µM in data set [1], 30.3 µM in data set [2], 28.7 µM in data set [3] and 42.6 µM in data set [4]. The “SI1: selectivity index IC50(MCF-10A)/IC50(MCF-7)” value in data set [2] is above 3.30. Also, the “SI2: selectivity index IC50(MCF-10A)/IC50(MDA-MB-231)” value in data set [4] is listed as above 2.34. Besides, the half-inhibitory concentration (IC50) at 24 h in data set [5] is above 100 µM.

Turning to `Cc1ccc2c(c1)C(=O)C(=O)N2CCCCOC1O[C@@H]2O[C@@]3(C)CC[C@H]4[C@H](C)CC[C@@H]([C@H]1C)[C@@]24OO3` (stereo partly drawn) [Hybrid 6c, 5-Methyl-1-(4-(((3R,5aS,6R,8aS,9R,12R,12aR)-3,6,9-trimethyldecahydro-12H-3,12-epoxy[1,2]dioxepino[4,3-i]isochromen-10-yl)oxy)butyl)indoline-2,3-dione], the IC50 in data set [1] was determined as 44.5 µM; in data set [2], 59.7 µM; in data set [3], 49.9 µM; in data set [4], 42.3 µM. Moreover, the “SI1: selectivity index IC50(MCF-10A)/IC50(MCF-7)” value in data set [2] is above 1.67. Moreover, the “SI2: selectivity index IC50(MCF-10A)/IC50(MDA-MB-231)” value in data set [4] is recorded as above 2.36. Besides, in data set [5], the half-inhibitory concentration (IC50) at 24 h is above 100 µM.

With `C[C@@H]1CC[C@H]2[C@@H](C)C(=O)O[C@@H]3O[C@@]4(C)CC[C@@H]1[C@]32OO4` [ART, Artemisinin], the 50% inhibitory concentration (IC50) in data set [1] and in data set [3] was above 100 µM in each case. In data set [2], the “SI1: selectivity index IC50(MCF-10A)/IC50(MCF-7)” value was above 1.14. Besides, the “SI2: selectivity index IC50(MCF-10A)/IC50(MDA-MB-231)” value in data set [4] is listed as above 1.38. This molecule displayed an IC50 at 24 h in data set [5] above 100 µM.

Turning to `Cc1ccc2c(c1)C(=NOCc1ccccc1)C(=O)N2CCOC1O[C@@H]2O[C@@]3(C)CC[C@H]4[C@H](C)CC[C@@H]([C@H]1C)[C@@]24OO3` (stereo partly drawn) [Hybrid 7k, 3-((Benzyloxy)imino)-5-methyl-1-(2-(((3R,5aS,6R,8aS,9R,12R,12aR)-3,6,9-trimethyldecahydro-12H-3,12-epoxy[1,2]dioxepino[4,3-i]isochromen-10-yl)oxy)ethyl)indolin-2-one], the IC50 in data set [1], in data set [2], in data set [3] and in data set [4] was above 100 µM in each case. Besides, the IC50 at 24 h in data set [5] is above 100 µM.

As to `Cc1ccc2c(c1)C(=NNC(N)=S)C(=O)N2CCCOC1O[C@@H]2O[C@@]3(C)CC[C@H]4[C@H](C)CC[C@@H]([C@H]1C)[C@@]24OO3` (stereo partly drawn) [Hybrid 7f, 2-(5-Methyl-2-oxo-1-(3-(((3R,5aS,6R,8aS,9R,12R,12aR)-3,6,9-trimethyldecahydro-12H-3,12-epoxy[1,2]dioxepino[4,3-i]isochromen-10-yl)oxy)propyl)indolin-3-ylidene)hydrazine-1-carbothioamide], the IC50 was 51.1 µM in data set [1], 46.7 µM in data set [2], 36.4 µM in data set [3] and 48.2 µM in data set [4]. Further, the “SI1: selectivity index IC50(MCF-10A)/IC50(MCF-7)” value in data set [2] is above 2.14. Besides, in data set [4], the “SI2: selectivity index IC50(MCF-10A)/IC50(MDA-MB-231)” value was above 2.07. This molecule came in with an IC50 at 24 h in data set [5] above 100 µM.

Broadly, the IC50 is the concentration that gives 50% inhibition. Low values mean higher potency, high ones lower potency.
